Source: patent US8188098B2, “GPR119 receptor agonists” (Hoffmann-La Roche Inc., priority 2008, dated 2012)

target: T1, GPR119 receptor (Mesocricetus auratus, UniProt A0A1U8CD06); experiment: cAMP assay in HIT-T15 hamster pancreatic islet cells (functional agonist activity); type: cell-based; conditions: HIT-T15 cells endogenously expressing GPR119; 30 min at 25° C.; intracellular cAMP
T1 construct: which endogenously express the GPR119 receptor; host or cells: HIT-T15 hamster pancreatic islet cells
T1 sequence (A0A1U8CD06 1-334): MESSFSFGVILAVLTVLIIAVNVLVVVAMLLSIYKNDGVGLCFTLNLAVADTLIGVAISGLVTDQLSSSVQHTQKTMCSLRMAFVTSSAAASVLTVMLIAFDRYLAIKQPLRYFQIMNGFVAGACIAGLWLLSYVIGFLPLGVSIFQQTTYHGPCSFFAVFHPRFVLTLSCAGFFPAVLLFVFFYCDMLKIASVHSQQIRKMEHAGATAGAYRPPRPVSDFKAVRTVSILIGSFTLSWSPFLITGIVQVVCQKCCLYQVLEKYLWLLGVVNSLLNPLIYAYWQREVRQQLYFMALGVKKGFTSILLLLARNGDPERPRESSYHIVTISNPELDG
Method: The functional agonist activities of compounds of the invention were characterized using a cAMP assay in HIT-T15 hamster pancreatic islet cells (American Type Culture Collection, Manassas, Va., USA) which endogenously express the GPR119 receptor. The cells were cultured in Kaighn's modification of Ham's F12 medium (Invitrogen Corporation, Carlsbad, Calif., USA) containing 10% horse serum, 2.5% FBS, and 1% Pen/Strep and grown in 225 cm^2 tissue culture flasks until they reached 75-85% confluence.
The cells were harvested 24 h prior to assay with 5 ml Versene®, washed with Kaighn/F12 medium and then plated into white 384-well plates (9000 cells/well) containing Kaighn/F12 medium. Prior to assay, the culture medium was replaced with a Kaighn/F12 medium without phenol red (50 μL/well) containing 0.5 mM 3-isobutyl-1-methylxanthine, 0.5 mg/ml BSA. The cells were incubated in the dark for 30 min at 25° C. in the absence or presence of varying concentrations of agonist (1 μL, 100% DMSO). The incubation media was discarded and replaced with the assay lysis buffer (50 μL/well) provided in the Tropix cAMP-Screen® kit (Applied Biosystems, Foster City, Calif., USA) and the plates incubated for 45 min at 37° C. The intracellular levels of cAMP generated in the HIT-T 15 cells were measured using the Tropix kit. In brief, 20 μL of the lysate was transferred into pre-coated antibody plates (384-well; Tropix kit) along with 10 μL of alkaline phosphatase conjugate and 20 μL of anti-cAMP antibody and the plates were incubated for 1 h at room temperature while shaking. The plates were then washed 5 times with wash buffer (70 μL) and tapped dry. CSPD®/Sapphire-II™ RTU substrate/enhancer solution (Applied Biosystems, Foster City, Calif., USA; 30 μL) was added and the plates were incubated for 45 min at room temperature while shaking. The signal generated was measured using a Wallac Victor V Luminometer (PerkinElmer Life And Analytical Sciences, Inc., Waltham, Mass., USA; 1 sec/well). EC50 values were calculated using the XLFit program (ID Business Solutions Ltd., Guildford, Surrey, UK).

Q: `C[S+]([O-])c1ccc(Oc2ncnc3c2cnn3C2CCN(C(=O)OC(C)(C)C)CC2)cc1` (stereo not drawn) [Example 58, 4-[4-(4-Methanesulfinyl-phenoxy)-pyrazolo[3,4-d]pyrimidin-1-yl]-piperidine-1-carboxylic acid tert-butyl ester] was tested. Which EC50 did it give?
A: 0.42 µM

Q: With `CC(C)(C)OC(=O)N1CCC(n2ncc3c(Oc4ccc(S(C)(=O)=O)cc4)ncnc32)CC1` [Example 59, 4-[4-(4-Methanesulfonyl-phenoxy)-pyrazolo[3,4-d]pyrimidin-1-yl]-piperidine-1-carboxylic acid tert-butyl ester] as the compound, how does the EC50 read?
A: 0.043 µM

Q: With `CC(C)(C)OC(=O)N1CCC(n2ncc3c(Oc4ccc(S(C)(=O)=O)cc4F)ncnc32)CC1` [Example 60, 4-[4-(2-Fluoro-4-methanesulfonyl-phenoxy)-pyrazolo[3,4-d]pyrimidin-1-yl]-piperidine-1-carboxylic acid tert-butyl ester] as the compound, how does the EC50 read?
A: 0.048 µM

Q: How did the EC50 turn out when `CC(C)(C)OC(=O)N1CCC(n2ncc3c(Oc4ccc(S(C)(=O)=O)c(F)c4)ncnc32)CC1` [Example 61, 4-[4-(3-Fluoro-4-methanesulfonyl-phenoxy)-pyrazolo[3,4-d]pyrimidin-1-yl]-piperidine-1-carboxylic acid tert-butyl ester] was run?
A: 0.095 µM

Q: `CC(C)(C)OC(=O)N1CCC(n2ncc3c(Oc4ccc(C(N)=O)cc4)ncnc32)CC1` [Example 62, 4-[4-(4-Carbamoyl-phenoxy)-pyrazolo[3,4-d]pyrimidin-1-yl]-piperidine-1-carboxylic acid tert-butyl ester] was tested. Which EC50 did it give?
A: 0.65 µM

Q: `COC(=O)c1ccc(Oc2ncnc3c2cnn3C2CCN(C(=O)OC(C)(C)C)CC2)c(F)c1` [Example 63, 4-[4-(2-Fluoro-4-methoxycarbonyl-phenoxy)-pyrazolo[3,4-d]pyrimidin-1-yl]-piperidine-1-carboxylic acid tert-butyl ester] was tested. Which EC50 did it give?
A: 0.42 µM

Q: With `CC(=O)c1ccc(Oc2ncnc3c2cnn3C2CCN(C(=O)OC(C)(C)C)CC2)cc1` [Example 64, 4-[4-(4-Acetyl-phenoxy)-pyrazolo[3,4-d]pyrimidin-1-yl]-piperidine-1-carboxylic acid tert-butyl ester] as the compound, how does the EC50 read?
A: 0.15 µM

Q: For `CC(=O)c1ccc(Oc2ncnc3c2cnn3C2CCN(C(=O)OC(C)(C)C)CC2)cc1C` [Example 65, 4-[4-(4-Acetyl-3-methyl-phenoxy)-pyrazolo[3,4-d]pyrimidin-1-yl]-piperidine-1-carboxylic acid tert-butyl ester], which EC50 is on record?
A: 0.31 µM

Q: `CC(C)(C)OC(=O)N1CCC(n2ncc3c(Oc4ccc([N+](=O)[O-])cc4F)ncnc32)CC1` [Example 66, 4-[4-(2-Fluoro-4-nitro-phenoxy)-pyrazolo[3,4-d]pyrimidin-1-yl]-piperidine-1-carboxylic acid tert-butyl ester] was tested. Which EC50 did it give?
A: 0.75 µM

Q: With `CC(=O)N1CCN(c2ccc(Oc3ncnc4c3cnn4C3CCN(C(=O)OC(C)(C)C)CC3)cc2)CC1` [Example 67, 4-{4-[4-(4-Acetyl-piperazin-1-yl)-phenoxy]-pyrazolo[3,4-d]pyrimidin-1-yl}-piperidine-1-carboxylic acid tert-butyl ester] as the compound, how does the EC50 read?
A: 0.85 µM

Q: For `Cc1cc(Oc2ncnc3c2cnn3C2CCN(C(=O)OC(C)(C)C)CC2)ccc1NS(C)(=O)=O` [Example 68, 4-[4-(4-Methanesulfonylamino-3-methyl-phenoxy)-pyrazolo[3,4-d]pyrimidin-1-yl]-piperidine-1-carboxylic acid tert-butyl ester], which EC50 is on record?
A: 0.73 µM

Q: Which EC50 does the source give for `CC(=O)Nc1cccc(Oc2ncnc3c2cnn3C2CCN(C(=O)OC(C)(C)C)CC2)c1` [Example 69, 4-[4-(3-Acetylamino-phenoxy)-pyrazolo[3,4-d]pyrimidin-1-yl]-piperidine-1-carboxylic acid tert-butyl ester] here?
A: 0.6 µM

Q: How did the EC50 turn out when `CC(=O)Nc1ccc(Oc2ncnc3c2cnn3C2CCN(C(=O)OC(C)(C)C)CC2)cc1` [Example 70, 4-[4-(4-Acetylamino-phenoxy)-pyrazolo[3,4-d]pyrimidin-1-yl]-piperidine-1-carboxylic acid tert-butyl ester] was run?
A: 0.14 µM

Q: How did the EC50 turn out when `CC(C)(C)OC(=O)N1CCC(n2ncc3c(Oc4cccc5ncccc45)ncnc32)CC1` [Example 71, 4-[4-(Quinolin-5-yloxy)-pyrazolo[3,4-d]pyrimidin-1-yl]-piperidine-1-carboxylic acid tert-butyl ester] was run?
A: 0.75 µM

Q: Which EC50 does the source give for `CC(C)(C)OC(=O)N1CCC(n2ncc3c(Oc4cnc5[nH]ccc5c4)ncnc32)CC1` [Example 72, 4-[4-(1H-Pyrrolo[2,3-b]pyridin-5-yloxy)-pyrazolo[3,4-d]pyrimidin-1-yl]-piperidine-1-carboxylic acid tert-butyl ester] here?
A: 1.2 µM

Q: For `CC(C)(C)OC(=O)N1CCC(n2ncc3c(Oc4ccc5[nH]ccc5c4)ncnc32)CC1` [Example 74, 4-[4-(1H-Indol-5-yloxy)-pyrazolo[3,4-d]pyrimidin-1-yl]-piperidine-1-carboxylic acid tert-butyl ester], which EC50 is on record?
A: 1.9 µM

Q: Which EC50 does the source give for `CC(C)(C)OC(=O)N1CCC(n2ncc3c(Oc4ccc5ccc(=O)oc5c4)ncnc32)CC1` [Example 75, 4-[4-(2-Oxo-2H-chromen-7-yloxy)-pyrazolo[3,4-d]pyrimidin-1-yl]-piperidine-1-carboxylic acid tert-butyl ester] here?
A: 1.8 µM

Q: Which EC50 does the source give for `Cc1cc(=O)oc2cc(Oc3ncnc4c3cnn4C3CCN(C(=O)OC(C)(C)C)CC3)ccc12` [Example 76, 4-[4-(4-Methyl-2-oxo-2H-chromen-7-yloxy)-pyrazolo[3,4-d]pyrimidin-1-yl]-piperidine-1-carboxylic acid tert-butyl ester] here?
A: 3 µM

Q: `CC(C)(C)OC(=O)N1CCC(n2ncc3c(Oc4ccc5sccc5c4)ncnc32)CC1` [Example 77, 4-[4-(Benzo[b]thiophen-5-yloxy)-pyrazolo[3,4-d]pyrimidin-1-yl]-piperidine-1-carboxylic acid tert-butyl ester] was tested. Which EC50 did it give?
A: 0.99 µM

Q: How did the EC50 turn out when `CC(C)(C)OC(=O)N1CCC(n2ncc3c(Oc4ccc5c(c4)C=CS5(=O)=O)ncnc32)CC1` [Example 78, 4-[4-(1,1-Dioxo-1H-1λ^6-benzo[b]thiophen-5-yloxy)-pyrazolo[3,4-d]pyrimidin-1-yl]-piperidine-1-carboxylic acid tert-butyl ester] was run?
A: 0.75 µM

Q: For `CC(C)(C)OC(=O)N1CCC(n2ncc3c(Oc4ccc5c(c4)CCS5(=O)=O)ncnc32)CC1` [Example 79, 4-[4-(1,1-Dioxo-2,3-dihydro-1H-1λ^6-benzo[b]thiophen-5-yloxy)-pyrazolo[3,4-d]pyrimidin-1-yl]-piperidine-1-carboxylic acid tert-butyl ester], which EC50 is on record?
A: 0.82 µM

Q: `CC(C)(C)OC(=O)N1CCC(n2ncc3c(Oc4ccc(-n5cncn5)cc4)ncnc32)CC1` [Example 80, 4-[4-(4-[1,2,4]Triazol-1-yl-phenoxy)-pyrazolo[3,4-d]pyrimidin-1-yl]-piperidine-1-carboxylic acid tert-butyl ester] was tested. Which EC50 did it give?
A: 0.046 µM

Q: Which EC50 does the source give for `CC(C)(C)OC(=O)N1CCC(n2ncc3c(Oc4ccc(-n5ncnn5)cc4)ncnc32)CC1` [Example 82, 4-[4-(4-Tetrazol-2-yl-phenoxy)-pyrazolo[3,4-d]pyrimidin-1-yl]-piperidine-1-carboxylic acid tert-butyl ester] here?
A: 1.8 µM

Q: With `CC(C)(C)OC(=O)N1CCC(n2ncc3c(Oc4ccc(-n5cnnn5)cc4)ncnc32)CC1` [Example 83, 4-[4-(4-Tetrazol-1-yl-phenoxy)-pyrazolo[3,4-d]pyrimidin-1-yl]-piperidine-1-carboxylic acid tert-butyl ester] as the compound, how does the EC50 read?
A: 1.6 µM

Q: With `Cc1nnnn1-c1ccc(Oc2ncnc3c2cnn3C2CCN(C(=O)OC(C)(C)C)CC2)cc1` [Example 84, 4-{4-[4-(5-Methyl-tetrazol-1-yl)-phenoxy]-pyrazolo[3,4-d]pyrimidin-1-yl}-piperidine-1-carboxylic acid tert-butyl ester] as the compound, how does the EC50 read?
A: 0.24 µM

Q: Which EC50 does the source give for `Cc1nc(-c2ccc(Oc3ncnc4c3cnn4C3CCN(C(=O)OC(C)(C)C)CC3)cc2)no1` [Example 85, 4-{4-[4-(5-Methyl-[1,2,4]oxadiazol-3-yl)-phenoxy]-pyrazolo[3,4-d]pyrimidin-1-yl}-piperidine-1-carboxylic acid tert-butyl ester] here?
A: 0.55 µM

Q: For `CC(C)(C)OC(=O)N1CCC(n2ncc3c(Oc4ccc(-c5ccsc5)cc4)ncnc32)CC1` [Example 86, 4-[4-(4-Thiophen-3-yl-phenoxy)-pyrazolo[3,4-d]pyrimidin-1-yl]-piperidine-1-carboxylic acid tert-butyl ester], which EC50 is on record?
A: 0.49 µM
